Measurements as given in US12297295B2, “Peptide for treating cancer” (Saint Leo University, priority 2019, dated 2025).
Like-named read-outs stand apart in the source and are kept apart here. Where no end group is shown, it is not given here.

Columns and labels:
[1] = tested on: BT-549 breast cancer cells; conditions: for effect on viability of BT-549 breast cancer cells: two doubling times, CCK-8; for IC50: 96 h
Description: The effect of Peptides 7M and 7MM on BT-549 breast cancer cells (ATCC #HTB-122) was studied. Pierce Protein Transfection reagent (Thermo Scientific, 89850) was used to deliver peptide to the cultured cells. BT-549 breast cancer cells were transfected with 0.625-20 μM Peptide 7M or 1.25-10 μM Peptide 7MM for 3.5 hrs, incubated in a complete media for a duration of two doubling times (96 hours), and assessed for viability by using a CCK-8 colorimetric assay.
(§1) IC50 values were calculated from obtained equations that describe cell viability as a function of peptide concentration.

CMG helicase [2] = target: T1, CMG helicase (Xenopus laevis, UniProt Q91876); experiment: S phase arrested Xenopus egg extracts, chromatin RPA Western blot as readout for DNA helicase activity; assay type: biochemical; conditions: 250 μM peptide, 90 min incubation
T1 construct: from tissue; host or cells: S phase arrested Xenopus egg extracts (endogenous proteins on chromatin)
Description: The peptide of SEQ ID NO: 1 was synthesized using solid-phase synthesis. The product was purified using HPLC to a purity of about 99%. 250 μM of peptide Ex7 ([…]) (SEQ ID NO: 8), peptide 7N (circularized—KGEVLQMEDDLV) (SEQ ID NO: 9), peptide 7M (ISFQLMLCVLDYF) (SEQ ID NO: 1), or peptide 7C (IKLSPPMLLKEPYK) (SEQ ID NO: 10) were incubated in S phase arrested Xenopus egg extracts. Following a 90 min incubation, chromatin was isolated and probed by Western blotting for RPA protein as a readout for DNA helicase activity. Additionally, peptide 7MN (ISFQLML) (SEQ ID NO: 5), peptide 7MM (QLMLCVL) (SEQ ID NO: 2), and peptide 7MC (LCVLDYF) (SEQ ID NO: 6) were tested.
250 μM of each of peptides 7α (DLVISFQLMLCVLDYFIK) (SEQ ID NO: 14), 7α-ln (LVISFQLMLCVLDYFIK) (SEQ ID NO: 22), 7α-2n (VISFQLMLCVLDYFIK) (SEQ ID NO: 23), 7α-3n (ISFQLMLCVLDYFIK) (SEQ ID NO: 24), 7α-4n (SFQLMLCVLDYFIK) (SEQ ID NO: 25), 7α-5n (FQLMLCVLDYFIK) (SEQ ID NO: 26), 7α-6n (QLMLCVLDYFIK) (SEQ ID NO: 27), 7α-7n (LMLCVLDYFIK) (SEQ ID NO: 28), 7α-17c (DLVISFQLMLCVLDYF) (SEQ ID NO: 29), 7α-16c (DLVISFQLMLCVLDY) (SEQ ID NO: 30), 7α-15c (DVISFQLMLCVLD) (SEQ ID NO: 31), 7α-14c (DVISFQLMLCVL) (SEQ ID NO: 32), 7α-11c (DVISFQLML) (SEQ ID NO: 33) was incubated in S phase arrested Xenopus egg extracts. Following a 90 min incubation, chromatin was isolated and probed by Western blotting for RPA protein as a readout for DNA helicase activity.

cancer cells = experiment: Viability of cancer cells, summary statement; assay type: cell-based
CMG helicase [3] = target: T1, CMG helicase; experiment: S phase arrested Xenopus egg extracts, chromatin RPA Western blot as readout for DNA helicase activity; assay type: biochemical; conditions: extended from the above and other findings; no test described
[4] = tested on: M059J glioma cancer cells; conditions: for IC50: 48 h
Description: (§2) Pierce Protein Transfection reagent (Thermo Scientific, 89850) was used to deliver peptide to the cultured cells.
M059J glioma cancer cells (ATCC #CRL-2366) were transfected with 1.25-10 μM peptide 7α for 3.5 hrs, incubated in a complete media for a duration of two doubling times, and assessed for viability by using a CCK-8 colorimetric assay (Dojindo Molecular Technologies, Inc.).
M059J glioma cancer cells (ATCC #CRL-2366) were transfected with 1.25-10 μM peptide 7MM for 3.5 hrs, incubated in a complete media for a duration of two doubling times, and assessed for viability by using a CCK-8 colorimetric assay (Dojindo Molecular Technologies, Inc.).
as §1

HepG2 liver cancer cells = conditions: 96 h
Description: as §2, §1

[5] = tested on: PANC-1 pancreatic cancer cells; conditions: 48 h
Description: The effect of Peptides 7M and 7MM on PANC-1 pancreatic cancer cells (ATCC #CRL-1469) was studied. Pierce Protein Transfection reagent (Thermo Scientific, 89850) was used to deliver peptide to the cultured cells. PANC-1 pancreatic cancer cells were transfected with 0.625-10 μM Peptide 7M or Peptide 7MM for 3.5 hrs, incubated in a complete media for a duration of two doubling times (48 hours), and assessed for viability by using a CCK-8 colorimetric assay.
The effect of peptide 7α of viability of pancreatic cancer cells was studied. PANC-1 pancreatic cancer cells (ATCC #CRL-1469) were transfected with 1.25-10 μM peptide 7α for 3.5 hrs, incubated in a complete media for a duration of two doubling times, and assessed for viability by using a CCK-8 colorimetric assay (Dojindo Molecular Technologies, Inc.).
as §1

[6] = tested on: SVG p12 immortalized astroglia cells
Description: as §1

[7] = tested on: HT1080 fibrosarcoma cancer cells
Description: as §1

[8] = tested on: THLE-3 immortalized normal liver cells
Description: as §1

[9] = tested on: HCT-116 colorectal cancer cells
Description: The effect of peptide 7MM of viability of colorectal cancer cells was studied. HCT-116 colorectal cancer cells (ATCC #CCL-247) were transfected with 1.25-10 μM peptide 7MM for 3.5 hrs, incubated in a complete media for a duration of two doubling times, and assessed for viability by using a CCK-8 colorimetric assay (Dojindo Molecular Technologies, Inc.).
as §1

[10] = tested on: Hs 766T pancreatic cancer cells
Description: as §1

[11] = tested on: hTERT-HPNE immortalized normal pancreatic cells
Description: as §1

[12] = tested on: HLF normal primary lung fibroblasts
Description: The effect of peptide 7α of viability of HLF normal primary lung fibroblasts was studied. HLF normal primary lung fibroblasts (ATCC #PCS-201-013) were transfected with 1.25-10 μM peptide 7α for 3.5 hrs, incubated in a complete media for a duration of two doubling times, and assessed for viability by using a CCK-8 colorimetric assay (Dojindo Molecular Technologies, Inc.).
The effect of peptide 7MM of viability of normal lung cells was studied. HLF normal primary lung fibroblasts (ATCC #PC S-201-013) were transfected with 1.25-10 μM peptide 7MM for 3.5 hrs, incubated in a complete media for a duration of two doubling times, and assessed for viability by using a CCK-8 colorimetric assay (Dojindo Molecular Technologies, Inc.).
as §1

[13] = tested on: PC3 prostate cancer cells
Description: The effect of peptide 7α of viability of prostate cancer cells was studied. PC3 prostate cancer cells (ATCC #CRL-1435) were transfected with 1.25-10 μM peptide 7α for 3.5 hrs, incubated in a complete media for a duration of two doubling times, and assessed for viability by using a CCK-8 colorimetric assay (Dojindo Molecular Technologies, Inc.).
The effect of peptide 7MM of viability of prostate cancer cells was studied. PC3 prostate cancer cells (ATCC #CRL-1435) were transfected with 1.25-10 μM peptide 7MM for 3.5 hrs, incubated in a complete media for a duration of two doubling times, and assessed for viability by using a CCK-8 colorimetric assay (Dojindo Molecular Technologies, Inc.).
as §1

[14] = tested on: DU145 prostate cancer cells
Description: DU145 prostate cancer cells (ATCC #HTB-81) were transfected with 1.25-10 μM peptide 7α for 3.5 hrs, incubated in a complete media for a duration of two doubling times, and assessed for viability by using a CCK-8 colorimetric assay (Dojindo Molecular Technologies, Inc.).
DU145 prostate cancer cells (ATCC #HTB-81) were transfected with 1.25-10 μM peptide 7MM for 3.5 hrs, incubated in a complete media for a duration of two doubling times, and assessed for viability by using a CCK-8 colorimetric assay (Dojindo Molecular Technologies, Inc.).
as §1

[15] = tested on: U-2 OS osteosarcoma cancer cells
Description: as §1

[16] = tested on: HMEC primary mammary epithelial normal cells
Description: HMEC mammary epithelial cells (ATCC #PCS-600-010) were transfected with 1.25-20 μM peptide 7α for 3.5 hrs, incubated in a complete media for a duration of two doubling times, and assessed for viability by using a CCK-8 colorimetric assay (Dojindo Molecular Technologies, Inc.).
HMEC primary normal epithelial breast cells (ATCC #PCS-600-010) were transfected with 1.25-10 μM peptide 7MM for 3.5 hrs, incubated in a complete media for a duration of two doubling times, and assessed for viability by using a CCK-8 colorimetric assay (Dojindo Molecular Technologies, Inc.).
as §1

[17] = transfected 1.25-10 μM for 3.5 hrs
[18] = conclusion drawn from Examples 39, 41, 42 and FIGS. 42, 44, 45
[19] = transfected 2.5 and 5.0 μM for 3.5 hrs
[20] = extended from the above and other findings, no test described
[21] = transfected 1.25-10 μM for 3.5 hrs, two doubling times, CCK-8

Description for A549 lung cancer cells: as §1
Description for H596 lung cancer cells: as §1

DLVISFALMLCVLDYFIK [7α-Q7A]
effect on viability of BT-549 breast cancer cells [1, 17]: inhibit viability of breast cancer cells

DLVISFQGMLCVLDYFIK [7α-L8G]
effect on viability of BT-549 breast cancer cells [1, 17]: inhibit viability of breast cancer cells

DLVISFQLMLCVLDY (listed as Homo sapiens) [7α-16c]
inhibition of CMG helicase in vitro (chromatin RPA Western blot) (CMG helicase [2]): inhibit CMG helicase in vitro
effect on viability of cancer cells (cancer cells; [18]): decrease viability of cancer cells

DLVISFQLMLCVLDYF (listed as Homo sapiens) [7α-17c]
inhibition of CMG helicase in vitro (chromatin RPA Western blot) (CMG helicase [2]): inhibit CMG helicase in vitro
effect on viability of cancer cells (cancer cells; [18]): decrease viability of cancer cells

DVISFQLML (DLVISFQLML; listed as Homo sapiens) [7α-11c]
effect on viability of BT-549 breast cancer cells [1, 19]: decrease viability
inhibition of CMG helicase in vitro (chromatin RPA Western blot) (CMG helicase [2]): inhibit CMG helicase in vitro
effect on viability of cancer cells (cancer cells; [18]): decrease viability of cancer cells

DVISFQLMLCVL (DLVISFQLMLCVL; listed as Homo sapiens) [7α-14c]
effect on viability of BT-549 breast cancer cells [1, 19]: decrease viability
inhibition of CMG helicase in vitro (chromatin RPA Western blot) (CMG helicase [2]): inhibit CMG helicase in vitro
effect on viability of cancer cells (cancer cells; [18]): decrease viability of cancer cells

DVISFQLMLCVLD (DLVISFQLMLCVLD; listed as Homo sapiens) [7α-15c]
effect on viability of BT-549 breast cancer cells [1, 19]: decrease viability
inhibition of CMG helicase in vitro (chromatin RPA Western blot) (CMG helicase [2]): inhibit CMG helicase in vitro
effect on viability of cancer cells (cancer cells; [18]): decrease viability of cancer cells

FQLMLCVLDYFIK (listed as Homo sapiens) [7α-5n]
inhibition of CMG helicase in vitro (chromatin RPA Western blot) (CMG helicase [2]): inhibit CMG helicase in vitro
effect on viability of cancer cells (cancer cells; [18]): decrease viability of cancer cells

GMLCVL [7MM6-G2]
effect on viability of cancer cells (cancer cells; [20]): decrease viability of cancer cells
inhibition of CMG helicase (CMG helicase [3]): inhibit CMG helicase

GMLCVLD [7MM6-G2-D]
effect on viability of cancer cells (cancer cells; [20]): decrease viability of cancer cells
inhibition of CMG helicase (CMG helicase [3]): inhibit CMG helicase

ISFQLMLCVLDYF [7M, ISFQLMLCVLDYF]
IC50 [4]: 6.8 µM
IC50 (HepG2 liver cancer cells): 10 µM
IC50 [1]: 6.6 µM
IC50 [5]: 7.4 µM
IC50 [6]: 109 µM

ISFQLMLCVLDYFIK (listed as Homo sapiens) [7α-3n]
inhibition of CMG helicase in vitro (chromatin RPA Western blot) (CMG helicase [2]): inhibit CMG helicase in vitro
effect on viability of cancer cells (cancer cells; [18]): decrease viability of cancer cells

LMGCVL [7MM6-G4]
effect on viability of cancer cells (cancer cells; [20]): decrease viability of cancer cells
inhibition of CMG helicase (CMG helicase [3]): inhibit CMG helicase

LMGCVLD [7MM6-G4-D]
effect on viability of cancer cells (cancer cells; [20]): decrease viability of cancer cells
inhibition of CMG helicase (CMG helicase [3]): inhibit CMG helicase

LMLCVL [7MM6]
effect on viability of cancer cells (cancer cells; [20]): decrease viability of cancer cells
inhibition of CMG helicase (CMG helicase [3]): inhibit CMG helicase

LMLCVLD [7MM6-D]
effect on viability of cancer cells (cancer cells; [20]): decrease viability of cancer cells
inhibition of CMG helicase (CMG helicase [3]): inhibit CMG helicase

LMLCVLDYFIK (listed as Homo sapiens) [7α-7n]
effect on viability of BT-549 breast cancer cells [1, 19]: decrease viability
inhibition of CMG helicase in vitro (chromatin RPA Western blot) (CMG helicase [2]): inhibit CMG helicase in vitro
effect on viability of cancer cells (cancer cells; [18]): decrease viability of cancer cells

LVISFQLMLCVLDYFIK (listed as Homo sapiens) [7α-1n]
inhibition of CMG helicase in vitro (chromatin RPA Western blot) (CMG helicase [2]): inhibit CMG helicase in vitro
effect on viability of cancer cells (cancer cells; [18]): decrease viability of cancer cells

QGMLCVL [7MM-G2]
effect on viability of cancer cells (cancer cells; [20]): decrease viability of cancer cells
inhibition of CMG helicase (CMG helicase [3]): inhibit CMG helicase

QLMGCVL [7MM-G4]
effect on viability of cancer cells (cancer cells; [20]): decrease viability of cancer cells
inhibition of CMG helicase (CMG helicase [3]): inhibit CMG helicase

QLMLCVL [7MM, QLMLCVL]
IC50 (A549 lung cancer cells): 15.6 µM
effect on viability of A549 lung cancer cells (A549 lung cancer cells; [21]): decreases viability
IC50 [4]: 7.7 µM
effect on viability of M059J glioma cells [4, 21]: decreases viability
IC50 [7]: 9.7 µM
effect on viability of HT1080 fibrosarcoma cancer cells [7, 21]: decreases viability
IC50 [8]: 100 µM
effect on viability of THLE-3 normal liver cells [8, 21]: does not affect viability
IC50 (HepG2 liver cancer cells): 14.2 µM
IC50 [9]: 4.9 µM
effect on viability of HCT-116 colorectal cancer cells [9, 21]: decreases viability
IC50 [1]: 6.8 µM
IC50 (H596 lung cancer cells): 7.6 µM
effect on viability of H596 lung cancer cells (H596 lung cancer cells; [21]): decreases viability
IC50 [5]: 10.1 µM
IC50 [10]: 5.7 µM
effect on viability of Hs 766T pancreatic cancer cells [10, 21]: decreases viability
IC50 [11]: 79.9 µM
effect on viability of hTERT-HPNE normal pancreatic cells [11, 21]: does not affect viability
IC50 [12]: 110 µM
effect on viability of HLF normal primary lung fibroblasts [12, 21]: does not affect viability
IC50 [13]: 13 µM
effect on viability of PC3 prostate cancer cells [13, 21]: decreases viability
IC50 [6]: 60.4 µM
effect on viability of SVG p12 normal glial cells [6, 21]: does not affect viability
IC50 [14]: 10.6 µM
effect on viability of DU145 prostate cancer cells [14, 21]: decreases viability
IC50 [15]: 9.6 µM
effect on viability of U-2 OS osteosarcoma cancer cells [15, 21]: decreases viability
IC50 [16]: 77.5 µM
effect on viability of HMEC normal breast cells [16, 21]: does not affect viability

QLMLCVLD [7MM-D]
effect on viability of cancer cells (cancer cells; [20]): decrease viability of cancer cells
inhibition of CMG helicase (CMG helicase [3]): inhibit CMG helicase

QLMLCVLDYFIK (listed as Homo sapiens) [7α-6n]
effect on viability of BT-549 breast cancer cells [1, 19]: decrease viability
inhibition of CMG helicase in vitro (chromatin RPA Western blot) (CMG helicase [2]): inhibit CMG helicase in vitro
effect on viability of cancer cells (cancer cells; [18]): decrease viability of cancer cells

SFQLMLCVLDYFIK (listed as Homo sapiens) [7α-4n]
inhibition of CMG helicase in vitro (chromatin RPA Western blot) (CMG helicase [2]): inhibit CMG helicase in vitro
effect on viability of cancer cells (cancer cells; [18]): decrease viability of cancer cells

VISFQLMLCVLDYFIK (listed as Homo sapiens) [7α-2n]
inhibition of CMG helicase in vitro (chromatin RPA Western blot) (CMG helicase [2]): inhibit CMG helicase in vitro
effect on viability of cancer cells (cancer cells; [18]): decrease viability of cancer cells
